Results published in patent US4309428A, “Maytansinoids” (Takeda Chemical Industries, Ltd., priority 1979, dated 1982).
In brackets after ≈: the same amount, converted by molar mass. Read-outs that look alike come from different tables or passages of the source.

Tests used:
[1] = tested on: Tetrahymena pyriformis W; assay: Antiprotozoal activity, serial dilution method; format: cell-based
Experimental: Antiprotozoal activity of compound (I) was assayed with Tetrahymena pyriformis W as the test organism and a medium composed of 20 g tryptose-peptone (Difco Co.), 1 g yeast extract, 2 g glucose, 1000 ml distilled water, 10 ml 1 M phosphate buffer (pH 7.0) as the assay medium. The microorganism was incubated at 28° C. for 44 to 48 hours and the growth inhibitory activity of compound (I) was assayed by the serial dilution method.

[2] = tested on: melanoma B-16 tumor cells; assay: Antitumor activity: life span prolongation in mice with intraperitoneally transplanted melanoma B-16 (NCI protocol); format: in vivo; details: intraperitoneally once daily for 9 days
Experimental: Therapeutic tests were carried out in mice according to NCI-protocol 1,300, Cancer Chemother, Reports, Part 3, 1972, Vol. 3, No. 2, in which melanoma B-16 tumor cells had been intraperitoneally transplanted, compound (I) being administered intraperitoneally once daily for 9 consecutive days.

[3] = 28° C., 44 to 48 hours, pH 7.0, read-out: Antiprotozoal activity MIC

## C=CCOc1cc2cc(c1Cl)N(C)C(=O)CC(OC(=O)C(C)C)C1(C)OC1C(C)C1CC(O)(NC(=O)O1)C(OC)C=CC=C(C)C2 (centres unmarked) [C20 -allyl ether, PDM-3-C20-allyl ether]
[1]; [3]
  MIC: ≤ 1 µg/mL

## CCOc1cc2cc(c1Cl)N(C)C(=O)CC(OC(=O)C(C)C)C1(C)OC1C(C)C1CC(O)(NC(=O)O1)C(OC)C=CC=C(C)C2 (centres unmarked) [C20 -ethoxy ether, PDM-3-C20-ethyl ether]
[1]; pH 7, read-out: Antiprotozoal activity MIC
  MIC: ≤ 1 µg/mL

## CCOC(=O)COc1cc2cc(c1Cl)N(C)C(=O)CC(OC(=O)C(C)C)C1(C)OC1C(C)C1CC(O)(NC(=O)O1)C(OC)C=CC=C(C)C2 (centres unmarked) [C20 -ethoxycarbonylmethyl ether, PDM-3-C20-ethoxycarbonylmethyl ether]
[1]; [3]
  MIC: 1 to 2 µg/mL (≈ 1.41 to 2.83 µM)

## CCOC(=O)CC(=O)COc1cc2cc(c1Cl)N(C)C(=O)CC(OC(=O)C(C)C)C1(C)OC1C(C)C1CC(O)(NC(=O)O1)C(OC)C=CC=C(C)C2 (centres unmarked) [C20 -γ-ethoxycarbonylacetonyl ether, PDM-3-C20 -γ-ethoxycarbonylacetonyl ether]
[1]; [3]
  MIC: 4 µg/mL (≈ 5.34 µM)

## CCOCCOCCOc1cc2cc(c1Cl)N(C)C(=O)CC(OC(=O)C(C)C)C1(C)OC1C(C)C1CC(O)(NC(=O)O1)C(OC)C=CC=C(C)C2 (centres unmarked) [C20-2-(2-ethoxyethoxy)ethyl ether, PDM-3-C20-2-(2-ethoxyethoxy)ethyl ether]
[1]; [3]
  MIC: 2 µg/mL (≈ 2.71 µM)

## COC1C=CC=C(C)Cc2cc(OCC(=NNC(=O)c3ccncc3)c3ccccc3)c(Cl)c(c2)N(C)C(=O)CC(OC(=O)C(C)C)C2(C)OC2C(C)C2CC1(O)NC(=O)O2 (centres unmarked) [PDM-3-C20-(2-isonicotinoylhydrazono-2-phenyl)ethyl ether]
[1]; [3]
  MIC: 2 to 4 µg/mL (≈ 2.33 to 4.66 µM)

## CCOC(COc1cc2cc(c1Cl)N(C)C(=O)CC(OC(=O)C(C)C)C1(C)OC1C(C)C1CC(O)(NC(=O)O1)C(OC)C=CC=C(C)C2)OCC (stereo not drawn) [PDM-3-C20-(β,β-diethoxy)ethyl ether, PDM-3-C20 -β,β-diethoxyethyl ether]
[2]; 25 μg/kg
  Antitumor activities B-16 (T/C %): 194%
[2]; 50 μg/kg
  Antitumor activities B-16 (T/C %): 211%
[2]; 100 μg/kg
  Antitumor activities B-16 (T/C %): 240%

## COC1C=CC=C(C)Cc2cc(OCc3ccccc3)c(Cl)c(c2)N(C)C(=O)CC(OC(=O)C(C)C)C2(C)OC2C(C)C2CC1(O)NC(=O)O2 (centres unmarked) [PDM-3-C20-benzylether, PDM-3-C20-benzyl ether]
[2]; 25 μg/kg
  Antitumor activities B-16 (T/C %): 182%
[2]; 50 μg/kg
  Antitumor activities B-16 (T/C %): 220%
[2]; 100 μg/kg
  Antitumor activities B-16 (T/C %): 234%
[1]; [3]
  MIC: ≤ 1 µg/mL

## COC1C=CC=C(C)Cc2cc(OCC(=O)c3ccccc3)c(Cl)c(c2)N(C)C(=O)CC(OC(=O)C(C)C)C2(C)OC2C(C)C2CC1(O)NC(=O)O2 (centres unmarked) [PDM-3-C20-phenacylether, PDM-3-C20-phenacyl ether]
[2]; 50 μg/kg
  Antitumor activities B-16 (T/C %): 188%
[2]; 100 μg/kg
  Antitumor activities B-16 (T/C %): 176%
[2]; 200 μg/kg
  Antitumor activities B-16 (T/C %): 211%
[2]; 400 μg/kg
  Antitumor activities B-16 (T/C %): 203%
